Converted amounts (≈) assume the structure as drawn. “And” between values parts separate entries of the source, which are not always exact repeats. Identical values can stand only once. Where a SMILES comes first, the peptide text is derived from it.
Assays:
HCT116 cells = test: Luciferase protein transduction; format: cell-based, human; details: HCT116, 2 µg recombinant luciferase with 10-32 µg peptide, 3 h in serum-free medium, mean of duplicates; result in words
Description: To perform a rapid screening of the protein transduction activities of the two series of peptides, we selected to deliver the luciferase protein from Photinus pyralis, which has a molecular weight (MW) of 62 kDa and an isoelectric point (pI) of 6.3. Indeed, the measurement of the activity of this enzyme is fast and very sensitive. […] Increasing amounts of peptides were added to a fixed amount of luciferase, and after 3 h of incubation with the human colon cancer cells HCT116, enzymatic activity was measured.
Figure 1 Transduction of the luciferase protein. HCT116 cells in 48-well plates were treated with 2 µg of recombinant luciferase (Rec. Luc) (per duplicate) in the presence or absence of LAH4 peptides (LAH4-Ln series in (A) and LAH4-An series in (B)). After 3 h of incubation in serum-free medium, cells were washed once with 1 mL/well of phosphate buffer saline (PBS), lysed, and the luciferase activity was determined. […] For each peptide, four conditions were tested: 10, 16, 24 and 32 µg of peptide/2 µg recombinant luciferase, except for LAH4 (16, 24 and 32 µg). Non-complexed recombinant luciferase was used as the control (black bar). The hydrophilic angles are shown in italics. […] It is uncertain whether it counts as a property result. The luciferase activities are shown only as bars, with no printed numbers, and are left out.
Protein complexes were generated using increasing peptide/protein w/w ratios.
Then, 0.25 mL of serum-free medium containing the peptide/protein complexes was transferred into each well. After an incubation time of 3 h at 37 °C the medium was removed, cells were washed once with 1 mL/well of PBS, and then 100 μL of lysis buffer was added per well. Luciferase activity and protein content were measured as described above.

[1] = system: E. coli bacteria (ATCC 25922); test: Broth microdilution antibacterial assay (MIC) in Mueller–Hinton broth, pH 5; format: cell-based; details: for MIC: E. coli ATCC 25922, broth microdilution, Mueller–Hinton broth pH 5, 37 °C, 12 h, OD600, concentration at which bacterial growth reaches a minimum (at least 80% inhibited), average of two experiments, each in triplicate; for MIC50: E. coli, Mueller–Hinton broth pH 5, x50 from Origin fits of the growth curves of Figure 3 (concentration range 100 µM to 0.52 µM), fit error given, * error estimated in the range of the 1.5-fold dilution steps
Description: Therefore, the antibacterial properties of both series of peptides were analyzed in Mueller–Hinton (MH) broth at pH 5 by determining the minimal inhibitory concentrations (MICs).
Figure 3 Bacterial growth as a function of peptide concentration for the LAH4-Ln (A) and the LAH4-An series (B). The average of two experimental data sets (each data point derived from triplicates under the same experiment conditions) covering the concentration range 100 µM to 0.52 µM are shown by the relative bacterial growth when compared to bacteria in the absence of peptide (=100%). To guide the eye, the data have been fitted with the function ymin + (ymax − ymin)/(1 + (x/xo)^p)^s using the OriginPro software. […] The assay was performed in Mueller–Hinton broth, pH 5.
A broth microdilution assay was used to determine the minimal inhibitory concentration (MIC). A peptide aliquot of 1 mg was first solubilized in 50% ethanol (10 mM) then diluted in H2O to get a 300 μM peptide stock solution.
For all the activity tests, E. coli bacteria (ATCC® 25922^TM, Thermo Fisher Scientific, Courtaboeuf, France) were used. Briefly, some colonies from E. coli spread on gelose were resuspended in Mueller–Hinton broth, pH 7.4. After incubation at 37 °C for about 6 h this preculture was diluted to OD550nm = 0.2 in MH at pH5 and allowed to grow to reach the exponential phase (OD550nm = 1–2). After two-step dilution in MH pH5, the working bacteria suspension corresponding to 1.10^5–2.10^5 colony-forming units (CFU)/mL was obtained.
The antimicrobial testing was carried out in 96-well microplates (sterile polystyrene untreated with F-bottom, Thermo Scientific Nunc A/S, Roskilde, Denmark). The first column of the plate contains the highest final concentration (Cf) of peptide to test (two experiments were done: the first one starting at Cf 100 μM and a second one starting at 30 μM). All samples were added to the first column of the plate and subsequently spread onto the plate by a 1.5-fold dilution series in 10 steps. The last columns correspond to the positive and negative control conditions, respectively. Finally, the bacterial working suspension was distributed (50 μL at 1.10^5–2.10^5 CFU/mL in MH1X at pH 5) to each well except for the negative control (MH1X at pH5). The final volume was 100 μL/well and the range of peptide concentrations tested was from 100 μM to 1.73 μM for the first experiment and from 30 μM to 0.52 μM for the second experiment. The microplates were incubated at 37 °C for 12 h before bacterial growth was assessed by measuring the OD600. The initial bacterial density for each experiment was checked by spreading 100 μL of the working bacterial suspension, diluted 1/100 and 1/500 in MH1X, pH 5 on MH agar plates. After overnight incubation at 37 °C, the CFU were counted and the CFU/mL were determined. The percentage of bacterial growth compared to the positive control allows one to determine the MIC. The MIC values represent the average of the lowest tested peptide concentration (from both experiments) where most (at least 80%) of the bacterial growth is inhibited.

U87 cells = test: DNA transfection with p-Luc plasmid, luciferase expression; details: 1.5 µg pDNA with 7.5-25 µg peptide, 2 h 30 min, read one day post-transfection, mean of duplicates, result in words
Description: In vitro cell transfection experiments were performed using the plasmid p-Luc (7.6 kb), which is an expression plasmid encoding the firefly luciferase gene under the control of the human cytomegalovirus (CMV) immediate–early promoter. In total, 55,000 U87 cells were plated in 48-well plates one day before the experiment was performed. For transfection, 0.25 mL of serum-free culture medium containing the DNA complexes was deposited into each well of the duplicate. After incubation for approximately 2 h 30 min at 37 °C the medium was replaced with a fresh one containing serum. Luciferase activity was measured as described below in the cell lysate one day after transfection.
Transfection complexes were prepared as follows: for a duplicate, 1.5 μg of plasmid DNA and the desired amount of peptide were each diluted into 25 μL of acetate buffer pH 5 and gently mixed. DNA complexes were generated using increasing peptide/DNA w/w ratios. After 20 min of incubation at room temperature, the mixture was diluted with culture medium to obtain a final volume of 0.5 mL.
For luciferase activity, cells were harvested in 100 μL of lysis buffer (8 mM MgCl2, 1 mM DTT, 1 mM EDTA, 0.6% Triton X-100, 15% glycerol, and 25 mM Tris-phosphate buffer pH 7.8). The cell lysate was then transferred into Eppendorf tubes and centrifuged for 7 min at 10,000× g to pellet debris. Luciferase light units were measured in a 96-well plate format with a Centro LB luminometer (Berthold) from an aliquot of the supernatant (2 μL) with 1 s integration after automatic injection of 50 μL assay buffer (lysis buffer without Triton X-100 but supplemented with 2 mM ATP) and 50 μL of a luciferin solution (167 μM in water). Luciferase background was subtracted from each value and the protein content of the transfected cells was measured by Bradford dye-binding using the BioRad protein assay (Bio-Rad). The transfection efficiency was expressed as light units/s/mg protein (light units measured over a period of 1 s, and the values were then normalized after measurement of the amount of protein present in each well). The reported values are the mean of duplicates. Error bars represent the standard deviation of the mean.
glioblastoma U87 cells. Increasing amounts of peptide were mixed with a constant amount of reporter
plasmid (1.5 µg per duplicate of pDNA) and the complexes were incubated for 2h 30min with the
cells plated in 48-well plates. The transfection medium was then removed and replaced with fresh
culture medium supplemented with 10% serum. Luciferase activity was measured one day post-
transfection. The transfection efficiency is expressed as light units/s/mg protein and the reported
values are the mean of duplicates. Error bars represent the standard deviation of the mean.

Row | Compound | luciferase protein transduction efficiency (luciferase activity, light units/s/mg protein) (HCT116 cells) | MIC [1] | MIC50 [1] | DNA transfection activity (luciferase activity) (U87 cells)
1 | CC(C)C[C@H](NC(=O)[C@H](C)NC(=O)[C@H](C)NC(=O)[C@H](Cc1c[nH]cn1)NC(=O)[C@H](CC(C)C)NC(=O)[C@H](CC(C)C)NC(=O)[C@H](C)NC(=O)[C@H](CC(C)C)NC(=O)[C@H](Cc1c[nH]cn1)NC(=O)[C@H](CC(C)C)NC(=O)[C@H](CC(C)C)NC(=O)[C@H](C)NC(=O)[C@H](CCCCN)NC(=O)[C@@H](N)CCCCN)C(=O)N[C@@H](CC(C)C)C(=O)N[C@@H](C)C(=O)N[C@@H](Cc1c[nH]cn1)C(=O)N[C@@H](CC(C)C)C(=O)N[C@@H](C)C(=O)N[C@@H](C)C(=O)N[C@@H](CC(C)C)C(=O)N[C@@H](Cc1c[nH]cn1)C(=O)N[C@@H](CC(C)C)C(=O)N[C@@H](CCCCN)C(=O)N[C@@H](CCCCN)C(=O)N[C@@H](C)C(N)=O [LAH4-L5] (H-KKALLHLALLHAALLAHLAALHLKKA-NH2) | the most efficient peptides | below 2 µM | 1.2 µM (≈ 3.33 µg/mL) | 
2 | H-KKALLALALHHLALLALHLAHALKKA-NH2 [LAH4-L2, isomer of LAH4, LAH4-Ln series] | the most efficient peptides |  | 4.7 µM | 
3 | H-KKALLHALLAALLAHLHALLAHLKKA-NH2 [LAH4-A6, isomer of LAH4, LAH4-An series] |  |  | 2.9 µM | high levels of activity
4 | CC(C)C[C@H](NC(=O)[C@H](C)NC(=O)[C@H](CCCCN)NC(=O)[C@@H](N)CCCCN)C(=O)N[C@@H](CC(C)C)C(=O)N[C@@H](C)C(=O)N[C@@H](Cc1c[nH]cn1)C(=O)N[C@@H](C)C(=O)N[C@@H](CC(C)C)C(=O)N[C@@H](Cc1c[nH]cn1)C(=O)N[C@@H](CC(C)C)C(=O)N[C@@H](CC(C)C)C(=O)N[C@@H](C)C(=O)N[C@@H](CC(C)C)C(=O)N[C@@H](CC(C)C)C(=O)N[C@@H](C)C(=O)N[C@@H](CC(C)C)C(=O)N[C@@H](Cc1c[nH]cn1)C(=O)N[C@@H](CC(C)C)C(=O)N[C@@H](C)C(=O)N[C@@H](Cc1c[nH]cn1)C(=O)N[C@@H](C)C(=O)N[C@@H](CC(C)C)C(=O)N[C@@H](CCCCN)C(=O)N[C@@H](CCCCN)C(=O)N[C@@H](C)C(N)=O [LAH4-L1] (H-KKALLAHALHLLALLALHLAHALKKA-NH2) | among the least efficient | 20 µM and 17 µM | 8.6 µM (≈ 23.9 µg/mL) | highest activity
5 | H-KKALLHALLAHLAALLHALLAHLKKA-NH2 [LAH4-A5, isomer of LAH4, LAH4-An series] | the most efficient peptides |  | 5.3 µM | high levels of activity
6 | H-KKALLLAALHHLAALALHLAHLLKKA-NH2 [LAH4-A2, isomer of LAH4, LAH4-An series] | the most efficient peptides |  | 5 µM | 
7 | CC(C)C[C@H](NC(=O)[C@H](C)NC(=O)[C@H](C)NC(=O)[C@H](CC(C)C)NC(=O)[C@H](CC(C)C)NC(=O)[C@H](CC(C)C)NC(=O)[C@H](C)NC(=O)[C@H](CC(C)C)NC(=O)[C@H](Cc1c[nH]cn1)NC(=O)[C@H](CC(C)C)NC(=O)[C@H](CC(C)C)NC(=O)[C@H](C)NC(=O)[C@H](CCCCN)NC(=O)[C@@H](N)CCCCN)C(=O)N[C@@H](Cc1c[nH]cn1)C(=O)N[C@@H](C)C(=O)N[C@@H](Cc1c[nH]cn1)C(=O)N[C@@H](CC(C)C)C(=O)N[C@@H](C)C(=O)N[C@@H](C)C(=O)N[C@@H](CC(C)C)C(=O)N[C@@H](Cc1c[nH]cn1)C(=O)N[C@@H](CC(C)C)C(=O)N[C@@H](CCCCN)C(=O)N[C@@H](CCCCN)C(=O)N[C@@H](C)C(N)=O [LAH4-L6] (H-KKALLHLALLLAALHAHLAALHLKKA-NH2) |  | below 2 µM | 0.9 µM (≈ 2.5 µg/mL) | 
8 | CC(C)C[C@H](NC(=O)[C@H](C)NC(=O)[C@H](CC(C)C)NC(=O)[C@H](Cc1c[nH]cn1)NC(=O)[C@H](Cc1c[nH]cn1)NC(=O)[C@H](C)NC(=O)[C@H](CC(C)C)NC(=O)[C@H](CC(C)C)NC(=O)[C@H](C)NC(=O)[C@H](C)NC(=O)[C@H](Cc1c[nH]cn1)NC(=O)[C@H](CC(C)C)NC(=O)[C@H](CC(C)C)NC(=O)[C@H](C)NC(=O)[C@H](CC(C)C)NC(=O)[C@H](Cc1c[nH]cn1)NC(=O)[C@H](CC(C)C)NC(=O)[C@H](CC(C)C)NC(=O)[C@H](C)NC(=O)[C@H](CCCCN)NC(=O)[C@@H](N)CCCCN)C(=O)N[C@@H](C)C(=O)N[C@@H](CC(C)C)C(=O)N[C@@H](CCCCN)C(=O)N[C@@H](CCCCN)C(=O)N[C@@H](C)C(N)=O [LAH4-L4] (H-KKALLHLALLHAALLAHHLALALKKA-NH2) |  |  | 0.8 µM (≈ 2.22 µg/mL) | 
9 | H-KKALLLAALHHLLALAHHLAALLKKA-NH2 [LAH4-A3, isomer of LAH4, LAH4-An series] |  |  | 7.5 µM | 
10 | CC(C)C[C@H](NC(=O)[C@H](C)NC(=O)[C@H](Cc1c[nH]cn1)NC(=O)[C@H](C)NC(=O)[C@H](CC(C)C)NC(=O)[C@H](CC(C)C)NC(=O)[C@H](C)NC(=O)[C@H](CCCCN)NC(=O)[C@@H](N)CCCCN)C(=O)N[C@@H](C)C(=O)N[C@@H](Cc1c[nH]cn1)C(=O)N[C@@H](CC(C)C)C(=O)N[C@@H](C)C(=O)N[C@@H](CC(C)C)C(=O)N[C@@H](CC(C)C)C(=O)N[C@@H](C)C(=O)N[C@@H](CC(C)C)C(=O)N[C@@H](Cc1c[nH]cn1)C(=O)N[C@@H](CC(C)C)C(=O)N[C@@H](C)C(=O)N[C@@H](CC(C)C)C(=O)N[C@@H](Cc1c[nH]cn1)C(=O)N[C@@H](CC(C)C)C(=O)N[C@@H](CCCCN)C(=O)N[C@@H](CCCCN)C(=O)N[C@@H](C)C(N)=O [LAH4-L0] (H-KKALLAHALAHLALLALHLALHLKKA-NH2) |  | 6 µM (≈ 16.7 µg/mL) | 3.1 µM (≈ 8.61 µg/mL) | 
11 | H-KKALLALALHHLALLAHHLALALKKA-NH2 [LAH4-L3, isomer of LAH4, LAH4-Ln series] |  |  | 1.4 µM | 
